Read-outs that look alike come from different tables or passages of the source.
How the values were obtained:
[1] = system: UWB1.289 ovarian cancer cell lines; assay: Combination cell viability (CellTiter-Glo), CB-839 with niraparib; format: cell-based; settings: FIG. 3a; combination with PARP inhibitor niraparib, various concentrations of CB-839, 6 days
Protocol: (§1) Cells were treated with a dose titration of either CB-839, an anti-cancer agent, or a mixture thereof for 72 hours (for palbociclib or talazoparib) or 6 days (for niraparib) in growth media. At the end of the incubation, cell viability was measured using CellTiter-Glo as per manufacturer's protocol (Promega, Madison, Wis.). Cell proliferation for all compound treatments is represented with bar graphs, where luminescent output, Relative Light Units (RLU), correlates with viable cell number. Combination indices were calculated using CalcuSyn software (biosoft.com) and reported for individual mixtures of CB-839 and each agent.

[2] = system: HCC827 lung cancer cell lines; assay: Combination cell viability (CellTiter-Glo), CB-839 with osimertinib; format: cell-based; settings: FIG. 4a, various concentrations of CB-839, 72 hours
Protocol: as §1, with “agent, osimertinib alone” for “agent,”, “of CB-839 and osimertinib” for “thereof”, “hours” for “hours (for palbociclib or talazoparib) or 6 days (for niraparib)”, “relative” for “viable”, “osimertinib.” for “each agent.”

[3] = system: H1975 lung cancer cell lines; assay: as above; format: cell-based; settings: FIG. 4b, various concentrations of CB-839, 72 hours
Protocol: as §1, with “agent, osimertinib alone” for “agent,”, “of CB-839 and osimertinib” for “thereof”, “hours” for “hours (for palbociclib or talazoparib) or 6 days (for niraparib)”, “relative” for “viable”, “osimertinib.” for “each agent.”

[4] = system: HCC1395 breast cancer cell lines; assay: Combination cell viability (CellTiter-Glo), CB-839 with talazoparib; format: cell-based; settings: FIG. 3b; combination with PARP inhibitor talazoparib, various concentrations of CB-839, 72 hours
Protocol: as §1

[5] = system: MCF-7 breast adenocarcinoma cells; assay: MCF-7 xenograft, CB-839 and palbociclib; format: in vivo; settings: combination CB-839 200 mg/kg PO BID and palbociclib orally once daily; scid/bg mice; FIG. 2b
Protocol: Female scid/bg mice were implanted subcutaneously with 17B-estradiol sustained release pellets on Day −1. The following day mice were implanted subcutaneously with 5×10^6 MCF-7 breast adenocarcinoma cells mixed 1:1 with matrigel. On Day 7 post-implant, mice were randomized into groups of n=10/group to receive the following: 1) Vehicle (25% hydroxypropyl-B-cyclodextrin) orally BID; 2) CB-839 at 200 mg/kg orally BID; 3) Palbociclib at 50 mg/kg orally once daily; or 4) CB-839 at 200 mg/kg PO BID and Palbociclib orally once daily. Tumors were measured with calipers three times per week and tumor volume calculated using the formula tumor volume (mm^3)=(a×b^2/2) where ‘b’ is the smallest diameter and ‘a’ is the largest perpendicular diameter. ****P<0.0001 (ANOVA) versus both monotherapies.

[6] = system: HCC1569 (breast) cancer cell lines; assay: Combination cell viability (CellTiter-Glo), CB-839 with palbociclib; format: cell-based; settings: FIG. 1a; combination with CDK 4/6 inhibitor palbociclib, various concentrations of CB-839, 72 hours
Protocol: as §1

[7] = system: estrogen receptor positive (ER+) breast cancer; assay: as above; format: cell-based; settings: FIG. 2a; combination with CDK 4/6 inhibitor palbociclib, various concentrations of CB-839, 72 hours
Protocol: as §1

P493-6 (myc “on”) cells = assay: Cell Proliferation Assay; format: cell-based; settings: 72 hrs incubation
Protocol: P493-6 (myc “on”) cells were maintained in growth media (RPMI-1640, 10% FBS, 2 mM glutamine, 100 units/ml Penicillin and 100 μg/ml streptomycin) at 37° C. with 5% CO2. For compound assay, P493-6 cells were plated in 96-well V-bottom plates on the day of compound addition in 50 μl of growth media at a cell density of 200,000 cells/ml (10,000 cells/well). Compounds were serially diluted in 100% DMSO at 200-times the final concentration. Compounds were diluted 100-fold into growth media and then 50 μl of this mixture was added to cell plates making the final concentration of DMSO 0.5%. Cells were incubated with compound for 72 hrs at 37° C. with 5% CO2 and analyzed for antiproliferative effects either by Cell Titer Glo (Promega) or FACS analysis using the Viacount (Millipore) kit on the Guava instrument.

Compound: O=C(Cc1cccc(OC(F)(F)F)c1)Nc1ccc(CCCCc2nnc(NC(=O)Cc3ccccn3)s2)nn1 [CB-839]
- synergy between CB-839 and niraparib [1]: synergy
- synergy between CB-839 and osimertinib [2]: synergy
- synergy between CB-839 and osimertinib [3]: synergy
- synergy between CB-839 and talazoparib [4]: synergy
- tumor volume, P (ANOVA) versus both monotherapies [5]: < 0.0001
- synergy between CB-839 and palbociclib [6]: synergy
- synergy between CB-839 and palbociclib [7]: synergy

Compound: [2H]C([2H])(CCc1nnc(N)s1)C([2H])([2H])c1ccc(NC(=O)Cc2cccc(OC(F)(F)F)c2)nn1 [Compound 726]
- IC50 (P493-6 (myc “on”) cells; P493-6, read-out: Cell prolif P493 72h IC50): 610 nM

Compound: [2H]C([2H])(CCc1nnc(NC(=O)Cc2ccccn2)s1)C([2H])([2H])c1ccc(NC(=O)Cc2cccc(OC(F)(F)F)c2)nn1 [Compound 727]
- IC50 (P493-6 (myc “on”) cells; read-out: Cell prolif P493 72h IC50): 12 nM

Reference: patent US20200038398A1, “COMBINATION THERAPY WITH GLUTAMINASE INHIBITORS” (Calithera Biosciences, Inc., priority 2017, published 2020)
